This assay concerns 313798-341-R-J2-PDC spheroids, viability. The assay can be described thus: Anticancer human tumor 313798-341-R-J2-PDC patient-derived cervical squamous cell carcinoma cell line growth inhibition [PI3K]. The note with it: spheroids with HUVEC and MSC; for viability, T/C: stronger effect = lower value. The method in brief:
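Stroma-containing spheroids: tumor line, pooled-donor HUVEC, hMSC. Treatments: targeted agents with PI3K inhibitors. Dosing: clinically relevant, half-log spacing, 10 microM ceiling without known Cmax. Read-out: cell viability.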

pIC50: −log10 of the molar value. Several values for one entry are separate records, joined by “and”; a condition that tells them apart may be missing. Equal entries are not always repeated. Where only a bound is given, the exact number is not on record here.
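Further: spheroids exposed to compounds for seven days.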
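Wherever viability, T/C is given: 100% = DMSO vehicle control viability.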

For orientation: pIC50 means −log10 of the IC50, conventionally taken in molar units. In general, viability, T/C refers to the result in the treated group divided by that in the control group, in per cent. In the case of `Cn1nccc1Nc1nccc(-c2ccn(C(CO)c3ccc(Cl)c(F)c3)c(=O)c2)n1` (stereo not given) + CC(Nc1ncnc2nc[nH]c12)c1cc2cccc(Cl)c2c(=O)n1-c1ccccc1, the negative logarithm of the IC50 (pIC50) runs as follows: (curve of first compound, second compound 0.0316 µM) less than 5.00; (curve of first compound, second compound 0.1 µM) less than 5.00; (curve of first compound, second compound 0.316 µM) less than 5.00; (curve of first compound, second compound 1 µM) less than 5.00; (curve of first compound, second compound 3.16 µM) less than 5.00; (curve of first compound, second compound 10 µM) less than 5.00. Also, the viability, T/C runs as follows: (second compound 0.0316 µM, first compound 0.0316 µM) 92.4%; (second compound 0.0316 µM, first compound 0.1 µM) 94.5%; (second compound 0.0316 µM, first compound 0.316 µM) 90.1%; (second compound 0.0316 µM, first compound 1 µM) 99.1%; (second compound 0.0316 µM, first compound 3.16 µM) 91.3%; (second compound 0.0316 µM, first compound 10 µM) 95.1%. The viability, T/C was 100% (second compound 0.1 µM, first compound 0.0316 µM); 108% (second compound 0.1 µM, first compound 0.1 µM); 97.7% (second compound 0.1 µM, first compound 0.316 µM); 104% (second compound 0.1 µM, first compound 1 µM); 105% (second compound 0.1 µM, first compound 3.16 µM); 94.2% (second compound 0.1 µM, first compound 10 µM). Also, the viability, T/C is 114% (second compound 0.316 µM, first compound 0.0316 µM); 95.7% (second compound 0.316 µM, first compound 0.1 µM); 90.2% (second compound 0.316 µM, first compound 0.316 µM); 95% (second compound 0.316 µM, first compound 1 µM); 110% (second compound 0.316 µM, first compound 3.16 µM); 101% (second compound 0.316 µM, first compound 10 µM). The viability, T/C by setting is: (second compound 1 µM, first compound 0.0316 µM) 102%; (second compound 1 µM, first compound 0.1 µM) 85.4%; (second compound 1 µM, first compound 0.316 µM) 107%; (second compound 1 µM, first compound 1 µM) 98.9%; (second compound 1 µM, first compound 3.16 µM) 93.5%; (second compound 1 µM, first compound 10 µM) 94.1%. Moreover, the viability, T/C reads like this: (second compound 3.16 µM, first compound 0.0316 µM) 97.6%; (second compound 3.16 µM, first compound 0.1 µM) 96%; (second compound 3.16 µM, first compound 0.316 µM) 94.1%; (second compound 3.16 µM, first compound 1 µM) 87.7%; (second compound 3.16 µM, first compound 3.16 µM) 89.9%; (second compound 3.16 µM, first compound 10 µM) 90.6%. Also, the viability, T/C is 98.8% (second compound 10 µM, first compound 0.0316 µM); 75.3% (second compound 10 µM, first compound 0.1 µM); 77.8% (second compound 10 µM, first compound 0.316 µM); 78.7% (second compound 10 µM, first compound 1 µM); 85.8% (second compound 10 µM, first compound 3.16 µM); 73.8% (second compound 10 µM, first compound 10 µM).
In general, IC50 refers to the concentration that gives 50% inhibition. For the compound `CC(C)n1nc(-c2ccc3oc(N)nc3c2)c2c(N)ncnc21`, the viability, T/C by setting is: (compound 0.000316 µM) 99% [middle of 4 runs]; (compound 0.001 µM) 98.2% [middle of 4 runs]; (compound 0.00316 µM) 101% [middle of 4 runs]; (compound 0.01 µM) 86.7% [middle of 4 runs]; (compound 0.0316 µM) 77.7% [middle of 4 runs]; (compound 0.1 µM) 38.6% (2×) and 36.7% and 38.7%. Moreover, the IC50 (curve of compound) was 71.3 nM [middle of 4 runs].
With `C[C@@H](NC(=O)c1ncnc(N)c1Cl)c1ncc(C(=O)Nc2cc(C(F)(F)F)c(Cl)cn2)s1`, the viability, T/C is, setting by setting: (compound 0.0316 µM) 94.6% [middle of 4 runs]; (compound 0.1 µM) 102% [middle of 4 runs]; (compound 0.316 µM) 99.1% [middle of 4 runs]; (compound 1 µM) 97.8% [middle of 4 runs]; (compound 3.16 µM) 120% [middle of 4 runs]. In addition, the pIC50 (curve of compound) is < 5.00 and 5.23.

The values above are taken from PubChem BioAssay AID1963982 (Molecular Pharmacology Branch, DTP, NCI, 2024).
